# Several values for one entry are separate records, joined by “and”; a condition that tells them apart may be missing. Equal entries are not always repeated.
# What was measured:
# [1] = Pharmacokinetics of CV-10155 solid dosage forms in fed or fasted beagle dogs; settings: for AUC(0-t): AUCLast; for MRT inf: MRTInf; for half-life: T½
# clinical [2] = settings: human, in vivo, 60 mg
# [3] = system: models of depression, anxiety, seizure, and EEG; test: Preclinical rodent models of seizure, anxiety, depression and EEG biomarker (overall); format: in vivo
# clinical [4] = settings: human, in vivo
# [5] = Pharmacokinetics of CV-10155 in preclinical rodent studies; settings: for AUC(0-inf) / Cmax / Tmax: rodent, in vivo, po
# α1β2γ2 GABAA receptors = α1β2γ2 GABAA receptors (Homo sapiens, UniProt P14867+P47870); test: Synchropatch electrophysiology, potentiation of synaptic GABAA receptors; format: cell-based
# α4β3δ GABAA receptors = α4β3δ GABAA receptors (Homo sapiens, UniProt P28472+P48169); test: Synchropatch electrophysiology, potentiation of extra synaptic GABAA receptors; format: cell-based
# in vivo = settings: beagle, dog, iv, 1 mg/kg
# sleep states = test: Sleep states by electroencephalogram (EEG) in rats; format: in vivo
# Description: The effect of CV-10155 on various sleep states was analyzed in rats. Rats were given various doses of CV-10155, and sleep states were analyzed by electroencephalogram (EEG).
# FIG. 17 is a hypnogram showing the percentage of time spent in different sleep states by rats given drug vehicle. Purple bars represent REM sleep; green bars represent non-REM sleep; blue bars represent quiet waking; and red bars represent active waking.
# FIG. 18 is a hypnogram showing the percentage of time spent in different sleep states by rats given 1 mg/kg CV-10155. Purple bars represent REM sleep; green bars represent non-REM sleep; blue bars represent quiet waking; and red bars represent active waking.
# FIG. 19 is a hypnogram showing the percentage of time spent in different sleep states by rats given 3 mg/kg CV-10155. Purple bars represent REM sleep; green bars represent non-REM sleep; blue bars represent quiet waking; and red bars represent active waking.
# FIG. 20 is a hypnogram showing the percentage of time spent in different sleep states by rats given 6 mg/kg CV-10155. Purple bars represent REM sleep; green bars represent non-REM sleep; blue bars represent quiet waking; and red bars represent active waking.
# FIG. 21 is a hypnogram showing the percentage of time spent in different sleep states by rats given 10 mg/kg CV-10155. […]
# [6] = HPMC-AS formulation, 10 mg PO, fed cohort, individual dogs
# [7] = HPMC-AS formulation, 10 mg PO, fed cohort, mean of 4 dogs
# [8] = HPMC-AS formulation, 10 mg PO, pentagastrin/fasted cohort, individual dogs
# [9] = HPMC-AS formulation, 10 mg PO, pentagastrin/fasted cohort, mean of 4 dogs
# [10] = HPMC-AS formulation, 30 mg PO, pentagastrin/fasted cohort, individual dogs
# [11] = HPMC-AS formulation, 30 mg PO, pentagastrin/fasted cohort, mean of 4 dogs
# [12] = male, beagle, dog, plasma, po, 10 mg, HPMC-AS formulation, 10 mg PO, fed cohort, mean of 4 dogs
# [13] = male, beagle, dog, plasma, po, 10 mg, HPMC-AS formulation, 10 mg PO, pentagastrin/fasted cohort, mean of 4 dogs
# [14] = male, beagle, dog, plasma, po, 10 mg, HPMC-AS formulation, 10 mg PO, fed cohort, individual dogs
# [15] = male, beagle, dog, plasma, po, 30 mg, HPMC-AS formulation, 30 mg PO, pentagastrin/fasted cohort, mean of 4 dogs
# [16] = male, beagle, dog, plasma, po, 30 mg, HPMC-AS formulation, 30 mg PO, pentagastrin/fasted cohort, individual dogs
# [17] = 1 mg/kg (minimal effective dose), study including male and female subjects
# [18] = 3 mg/kg, study including male and female subjects
# [19] = 5 mg/kg, study including only male subjects
# [20] = 10 mg/kg, study including male and female subjects
# Sequence of α4β3δ GABAA receptors (P48169 36-554): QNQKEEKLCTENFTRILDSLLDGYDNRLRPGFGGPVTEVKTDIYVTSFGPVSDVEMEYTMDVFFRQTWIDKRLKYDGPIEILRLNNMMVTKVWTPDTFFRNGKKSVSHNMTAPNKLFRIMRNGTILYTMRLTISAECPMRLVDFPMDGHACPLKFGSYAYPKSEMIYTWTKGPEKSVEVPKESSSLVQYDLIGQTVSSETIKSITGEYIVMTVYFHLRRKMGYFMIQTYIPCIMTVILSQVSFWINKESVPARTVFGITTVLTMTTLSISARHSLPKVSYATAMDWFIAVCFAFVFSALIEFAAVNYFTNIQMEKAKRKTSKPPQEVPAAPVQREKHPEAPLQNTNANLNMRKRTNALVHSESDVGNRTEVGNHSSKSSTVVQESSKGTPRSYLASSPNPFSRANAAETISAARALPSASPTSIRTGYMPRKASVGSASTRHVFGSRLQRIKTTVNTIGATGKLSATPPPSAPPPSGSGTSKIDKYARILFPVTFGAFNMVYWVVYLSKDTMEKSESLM
# Sequence of α4β3δ GABAA receptors (P28472 26-473): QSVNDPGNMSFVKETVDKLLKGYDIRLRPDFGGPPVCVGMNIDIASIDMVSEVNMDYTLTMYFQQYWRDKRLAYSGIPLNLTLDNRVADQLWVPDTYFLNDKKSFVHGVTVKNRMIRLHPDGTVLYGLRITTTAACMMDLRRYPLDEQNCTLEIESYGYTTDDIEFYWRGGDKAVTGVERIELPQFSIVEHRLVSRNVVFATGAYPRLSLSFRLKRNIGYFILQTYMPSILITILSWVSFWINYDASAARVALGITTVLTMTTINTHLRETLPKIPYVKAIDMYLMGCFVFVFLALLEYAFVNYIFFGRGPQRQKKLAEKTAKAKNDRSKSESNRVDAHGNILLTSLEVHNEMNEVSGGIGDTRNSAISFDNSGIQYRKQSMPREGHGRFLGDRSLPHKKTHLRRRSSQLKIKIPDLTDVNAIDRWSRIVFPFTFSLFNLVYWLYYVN
# Sequence of α4β3δ GABAA receptors (O14764 25-452 partner): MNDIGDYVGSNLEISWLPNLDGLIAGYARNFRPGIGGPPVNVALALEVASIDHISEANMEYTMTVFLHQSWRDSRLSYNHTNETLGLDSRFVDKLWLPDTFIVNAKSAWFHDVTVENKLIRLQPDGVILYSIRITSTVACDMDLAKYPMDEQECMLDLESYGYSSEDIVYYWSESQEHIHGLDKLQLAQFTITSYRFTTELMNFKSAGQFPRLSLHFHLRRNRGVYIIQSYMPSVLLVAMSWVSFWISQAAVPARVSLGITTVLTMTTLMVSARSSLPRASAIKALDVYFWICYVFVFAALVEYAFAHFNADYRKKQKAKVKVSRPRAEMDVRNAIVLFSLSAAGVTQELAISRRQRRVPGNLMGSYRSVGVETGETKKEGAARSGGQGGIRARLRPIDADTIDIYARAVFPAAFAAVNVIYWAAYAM
# Sequence of α1β2γ2 GABAA receptors (P14867 28-456): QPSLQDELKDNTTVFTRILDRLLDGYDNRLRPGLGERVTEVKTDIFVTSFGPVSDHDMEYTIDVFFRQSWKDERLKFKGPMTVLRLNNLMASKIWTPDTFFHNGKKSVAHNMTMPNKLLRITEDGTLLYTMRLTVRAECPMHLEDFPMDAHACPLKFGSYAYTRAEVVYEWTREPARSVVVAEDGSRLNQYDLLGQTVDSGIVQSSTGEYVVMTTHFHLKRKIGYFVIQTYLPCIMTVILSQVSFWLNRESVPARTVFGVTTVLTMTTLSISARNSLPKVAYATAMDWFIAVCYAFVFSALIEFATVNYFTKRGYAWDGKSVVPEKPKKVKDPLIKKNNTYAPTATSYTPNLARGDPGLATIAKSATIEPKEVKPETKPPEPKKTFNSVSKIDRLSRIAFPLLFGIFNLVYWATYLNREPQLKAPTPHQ
# Sequence of α1β2γ2 GABAA receptors (P47870 25-512 limits assumed): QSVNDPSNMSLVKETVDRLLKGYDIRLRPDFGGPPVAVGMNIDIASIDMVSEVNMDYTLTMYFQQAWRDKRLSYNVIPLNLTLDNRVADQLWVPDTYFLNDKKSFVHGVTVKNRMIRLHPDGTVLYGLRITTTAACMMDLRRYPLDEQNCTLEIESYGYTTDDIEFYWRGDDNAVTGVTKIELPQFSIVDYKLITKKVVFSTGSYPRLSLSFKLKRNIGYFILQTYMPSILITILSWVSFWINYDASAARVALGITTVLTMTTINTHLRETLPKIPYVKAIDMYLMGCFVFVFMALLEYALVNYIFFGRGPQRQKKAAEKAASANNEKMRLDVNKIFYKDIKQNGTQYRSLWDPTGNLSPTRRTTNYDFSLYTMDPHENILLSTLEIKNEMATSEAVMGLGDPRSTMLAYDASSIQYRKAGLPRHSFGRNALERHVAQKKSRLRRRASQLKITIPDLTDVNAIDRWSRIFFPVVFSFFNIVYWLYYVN
# Sequence of α1β2γ2 GABAA receptors (P18507 40-475 partner): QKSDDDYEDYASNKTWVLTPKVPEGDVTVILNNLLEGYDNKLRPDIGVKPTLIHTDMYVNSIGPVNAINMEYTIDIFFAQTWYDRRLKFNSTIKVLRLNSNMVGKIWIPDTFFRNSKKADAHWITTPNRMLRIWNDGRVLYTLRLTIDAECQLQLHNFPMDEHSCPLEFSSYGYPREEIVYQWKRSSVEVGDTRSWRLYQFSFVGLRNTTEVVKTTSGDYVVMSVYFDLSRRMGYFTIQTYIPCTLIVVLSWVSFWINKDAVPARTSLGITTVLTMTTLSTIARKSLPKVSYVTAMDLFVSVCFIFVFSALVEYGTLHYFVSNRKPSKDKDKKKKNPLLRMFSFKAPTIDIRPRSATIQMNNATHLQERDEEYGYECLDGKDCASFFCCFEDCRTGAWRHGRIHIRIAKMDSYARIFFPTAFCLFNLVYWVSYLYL
structure (smiles),measurement,setting,value
"C[C@@]1(O)CC[C@@]2(C)[C@@H](CC[C@@H]3[C@@H]2CC[C@]2(C)[C@@H](C(=O)Cn4cc(C#N)cn4)CC[C@@H]32)C1 [CV-10155, 1-[2-[(3R,5S,8R,9S,10S,13S,14S,17S)-3-hydroxy-3,10,13-trimethyl-1,2,4,5,6,7,8,9,11,12,14,15,16,17-tetradecahydrocyclopenta[a]phenanthren-17-yl]-2-oxoethyl]pyrazole-4-carbonitrile]",AUCExtr,[1]; [6],23.1% and 21.3% and 22.0% and 23.4%
same,AUCInf,[1]; [6],5047 ng·h/mL and 2440 ng·h/mL and 2105 ng·h/mL and 3712 ng·h/mL
same,AUCInf/D,[1]; [6],5602 kg·ng·h/mL/mg and 2929 kg·ng·h/mL/mg and 2273 kg·ng·h/mL/mg and 4084 kg·ng·h/mL/mg
same,AUCLast,[1]; [6],3882 ng·h/mL and 1919 ng·h/mL and 1641 ng·h/mL and 2845 ng·h/mL
same,Cmax,[1]; [6],512 ng/mL and 334 ng/mL and 273 ng/mL and 649 ng/mL
same,F,[1]; [6],71.6% and 38.3% and 29.4% and 52.0%
same,MRTInf,[1]; [6],14.8 h and 15.0 h and 15.5 h
same,T½,[1]; [6],12.5 h and 12.2 h and 15.0 h
same,AUCExtr,[1]; [7],22.5%
same,AUCInf/D,[1]; [7],3722 kg·ng·h/mL/mg
same,F,[1]; [7],47.8%
same,AUCExtr,[1]; [8],20.4% and 14.1% and 47.1% and 17.9%
same,AUCInf,[1]; [8],2465 ng·h/mL and 2612 ng·h/mL
same,AUCInf/D,[1]; [8],2762 kg·ng·h/mL/mg and 2441 kg·ng·h/mL/mg and 3314 kg·ng·h/mL/mg and 2821 kg·ng·h/mL/mg
same,AUCLast,[1]; [8],2118 ng·h/mL and 1754 ng·h/mL and 2145 ng·h/mL
same,Cmax,[1]; [8],340 ng/mL and 183 ng/mL and 217 ng/mL
same,F,[1]; [8],36.5% and 34.8% and 29.1% and 38.5%
same,MRTInf,[1]; [8],14.8 h and 11.6 h and 33.6 h and 13.6 h
same,Tmax,[1]; [8],1 h
same,T½,[1]; [8],11.1 h and 8.84 h and 25.7 h and 9.66 h
same,AUCExtr,[1]; [9],24.8%
same,AUCInf/D,[1]; [9],2834 kg·ng·h/mL/mg
same,F,[1]; [9],34.7%
same,AUCExtr,[1]; [10],30.3% and 27.1% and 19.4% and 24.4%
same,AUCInf,[1]; [10],12588 ng·h/mL and 8620 ng·h/mL and 4072 ng·h/mL and 7783 ng·h/mL
same,AUCInf/D,[1]; [10],4995 kg·ng·h/mL/mg and 3157 kg·ng·h/mL/mg and 1572 kg·ng·h/mL/mg and 2982 kg·ng·h/mL/mg
same,AUCLast,[1]; [10],8769 ng·h/mL and 6285 ng·h/mL and 3281 ng·h/mL and 5884 ng·h/mL
same,Cmax,[1]; [10],1440 ng/mL and 954 ng/mL and 302 ng/mL and 993 ng/mL
same,F,[1]; [10],57.8% and 38.3% and 21.1% and 37.5%
same,MRTInf,[1]; [10],18.1 h and 14.4 h and 16.2 h
same,T½,[1]; [10],13.6 h and 9.98 h and 12.3 h
same,AUCExtr,[1]; [11],25.3%
same,AUCInf/D,[1]; [11],3177 kg·ng·h/mL/mg
same,F,[1]; [11],38.6%
same,AUC(0-inf),"[1]; male, beagle, dog, in vivo, po, 10 mg",3310 ng·h/mL
same,AUC(0-inf),"[1]; male, beagle, dog, plasma, po, 10 mg, AUCInf, HPMC-AS formulation, 10 mg PO, fed cohort, mean of 4 dogs",3330 ng·h/mL
same,AUC(0-inf),"[1]; male, beagle, dog, plasma, po, 10 mg, AUCInf, HPMC-AS formulation, 10 mg PO, pentagastrin/fasted cohort, individual dogs",2630 ng·h/mL
same,AUC(0-inf),"[1]; male, beagle, dog, plasma, po, 10 mg, AUCInf, HPMC-AS formulation, 10 mg PO, pentagastrin/fasted cohort, mean of 4 dogs",2760 ng·h/mL
same,AUC(0-t),[1]; [12],2570 ng·h/mL
same,AUC(0-t),"[1]; male, beagle, dog, plasma, po, 10 mg, HPMC-AS formulation, 10 mg PO, pentagastrin/fasted cohort, individual dogs",2090 ng·h/mL
same,AUC(0-t),[1]; [13],2030 ng·h/mL
same,Cmax,"[1]; male, beagle, dog, plasma, po, 10 mg, Cmax, HPMC-AS formulation, 10 mg PO, fed cohort, mean of 4 dogs",442 ng/mL
same,Cmax,"[1]; male, beagle, dog, plasma, po, 10 mg, Cmax, HPMC-AS formulation, 10 mg PO, pentagastrin/fasted cohort, individual dogs",222 ng/mL
same,Cmax,"[1]; male, beagle, dog, plasma, po, 10 mg, Cmax, HPMC-AS formulation, 10 mg PO, pentagastrin/fasted cohort, mean of 4 dogs",241 ng/mL
same,MRT inf,[1]; [14],15.7 h
same,MRT inf,[1]; [12],15.3 h
same,MRT inf,[1]; [13],18.4 h
same,Tmax,"[1]; male, beagle, dog, plasma, po, 10 mg, Tmax, HPMC-AS formulation, 10 mg PO, fed cohort, mean of 4 dogs",1.13 h
same,Tmax,"[1]; male, beagle, dog, plasma, po, 10 mg, Tmax, HPMC-AS formulation, 10 mg PO, pentagastrin/fasted cohort, individual dogs",2 h
same,Tmax,"[1]; male, beagle, dog, plasma, po, 10 mg, Tmax, HPMC-AS formulation, 10 mg PO, pentagastrin/fasted cohort, mean of 4 dogs",1.5 h
same,half-life,[1]; [14],12.6 h
same,half-life,[1]; [12],13.1 h
same,half-life,[1]; [13],13.8 h
same,AUC(0-inf),"[1]; male, beagle, dog, plasma, po, 30 mg, AUCInf, HPMC-AS formulation, 30 mg PO, pentagastrin/fasted cohort, mean of 4 dogs",8270 ng·h/mL
same,AUC(0-t),[1]; [15],6060 ng·h/mL
same,Cmax,"[1]; male, beagle, dog, plasma, po, 30 mg, Cmax, HPMC-AS formulation, 30 mg PO, pentagastrin/fasted cohort, mean of 4 dogs",922 ng/mL
same,MRT inf,[1]; [16],20 h
same,MRT inf,[1]; [15],17.2 h
same,Tmax,"[1]; male, beagle, dog, plasma, po, 30 mg, Tmax, HPMC-AS formulation, 30 mg PO, pentagastrin/fasted cohort, mean of 4 dogs",1 h
same,half-life,[1]; [16],17.8 h
same,half-life,[1]; [15],13.4 h
same,AUC,clinical [2],2900 ng·h/mL
same,Cmax,clinical [2],253 ng/mL
same,Tmax,clinical [2],3 h
same,half-life,clinical [2],34.5 h
same,dose from which robust efficacy was observed,[3]; most rodent models of seizure,≥ 3 mg/kg
same,minimal effective dose (MED),[3]; rodent models of seizure,1 mg/kg
same,AUC(0-inf),clinical [4]; 135 mg,3660 ng·h/mL
same,Cmax,clinical [4]; 135 mg,333 ng/mL
same,Tmax,clinical [4]; 135 mg,2.83 h
same,half-life,clinical [4]; 135 mg,25 h
same,Tmax,clinical [4]; po,2 to 4 h
same,half-life,clinical [4]; po,24 to 26 h
same,dose proportionality of AUC and Cmax,"human, in vivo, po",dose-proportional increase
same,"MTD, single ascending dose (SAD)",humans,ETX-155 135 mg SAD MTD
same,dose-limiting adverse event,humans,Ataxia
same,effect of food consumption on absorption,"humans, oral 30 mg, fed vs fasted",no clinically meaningful effect
same,adverse events observed,"humans, single oral dose, 200 mg","ataxia, tremor and tachycardia"
same,inter-subject variability (CV) of AUC and Cmax,"humans, single oral dose, 5-200 mg dose range",≤ 30%
same,dose-limiting adverse events,"humans, single oral dose, range of 5-135 mg",No dose-limiting adverse events were observed
same,most common adverse events,"humans, single oral dose, mild to moderate, only observed at the highest doses",Dizziness and somnolence
same,1/2 life,[5]; [17],3.66-6.82
same,Oral BA,[5]; [17],58.6-92.4
same,Oral BA,"[5]; 2 mg/kg, study including only male subjects",47.2
same,1/2 life,[5]; [18],2.84-4.96
same,Oral BA,[5]; [18],53-92.3
same,1/2 life,[5]; [19],4.19
same,Oral BA,[5]; [19],58.1
same,1/2 life,[5]; [20],3.23-4.80
same,Oral BA,[5]; [20],79.7-100
same,AUC(0-inf),"[5]; both, 1 mg/kg",508 to 1300 ng·h/mL
same,Cmax,"[5]; both, 1 mg/kg",84.4 to 128 ng/mL
same,Tmax,"[5]; both, 1 mg/kg",1.5 to 2 h
same,AUC(0-inf),"[5]; both, 3 mg/kg",1380 to 3900 ng·h/mL
same,Cmax,"[5]; both, 3 mg/kg",270 to 440 ng/mL
same,Tmax,"[5]; both, 3 mg/kg",1.25 to 2.5 h
same,AUC(0-inf),"[5]; both, 10 mg/kg",6850 to 14700 ng·h/mL
same,Cmax,"[5]; both, 10 mg/kg",1160 ng/mL
same,Tmax,"[5]; both, 10 mg/kg",1.25 to 2.25 h
same,AUC(0-inf),"[5]; male, 2 mg/kg",1320 ng·h/mL
same,Cmax,"[5]; male, 2 mg/kg",224 ng/mL
same,Tmax,"[5]; male, 2 mg/kg",1.7 h
same,AUC(0-inf),"[5]; male, 5 mg/kg",2610 ng·h/mL
same,Cmax,"[5]; male, 5 mg/kg",499 ng/mL
same,Tmax,"[5]; male, 5 mg/kg",0.83 h
same,EC50,α1β2γ2 GABAA receptors,207 nM
same,Emax,"α1β2γ2 GABAA receptors; α1β2γ2 Synaptic receptors, Synchropatch electrophysiology, read-out: Emax - efficacy: % of potentiation",586%
same,EC50,α4β3δ GABAA receptors,165 nM
same,fold higher efficiency at extra synaptic vs. synaptic channels,α4β3δ GABAA receptors; α4β3δ vs α1β2γ2,3 fold
same,Vd,in vivo,1.92 L/kg
same,clearance,in vivo,2.17 mL/min/kg
same,half-life,in vivo,13.9 h
same,dose producing an increase in non-REM sleep,"sleep states; EEG, 1, 3, 6, 10 mg/kg tested",≥ 3 mg/kg
same,target engagement (EEG),sleep states; within well-tolerated and efficacious dose ranges,dose-dependent target engagement

# Source: patent publication US20220296613A1, “FOOD-INDEPENDENT DOSING OF CV-10155 TO TREAT GABAA DISORDERS” (priority 2021, published 2022)
